# Source: ChEMBL document CHEMBL1201862, “PubChem BioAssay data set” (2004)
#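 Cultured in 96-well plates, cells were exposed to test compound for 48 hours across five concentrations. Here, GI50 denotes the concentration required for 50% inhibition of growth.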 Activity calls are given as the source filed them. Cut-off read from the data, not from the text of the source: active = GI50 up to about 1.1 µM and inactive = higher.
# Columns and labels:
# Assay in all cases: NCI anticancer screen, dose series, 48 h
# 786-0 = test system: 786-0
# A498 = test system: A498
# A549 = test system: A549
# ACHN = test system: ACHN
# BT-549 = test system: BT-549
# CAKI-1 = test system: CAKI-1
# CCRF-CEM = test system: CCRF-CEM
# COLO 205 = test system: COLO 205
# DU-145 = test system: DU-145
# EKVX = test system: EKVX
# HCC 2998 = test system: HCC 2998
# HCT-116 = test system: HCT-116
# HCT-15 = test system: HCT-15
# HOP-62 = test system: HOP-62
# HT-29 = test system: HT-29
# Hs-578T = test system: Hs-578T
# IGROV-1 = test system: IGROV-1
# K562 = test system: K562
# KM12 = test system: KM12
# LOX IMVI = test system: LOX IMVI
# M14 = test system: M14
# MCF7 = test system: MCF7
# MDA-MB-231 = test system: MDA-MB-231
# MDA-MB-435 = test system: MDA-MB-435
# MDA-N = test system: MDA-N
# MOLT-4 = test system: MOLT-4
# Malme-3M = test system: Malme-3M
# NCI-H23 = test system: NCI-H23
# NCI-H460 = test system: NCI-H460
# NCI-H522 = test system: NCI-H522
# NCI/ADR-RES = test system: NCI/ADR-RES
# OVCAR-3 = test system: OVCAR-3
# OVCAR-4 = test system: OVCAR-4
# OVCAR-5 = test system: OVCAR-5
# OVCAR-8 = test system: OVCAR-8
# PC-3 = test system: PC-3
# RPMI-8226 = test system: RPMI-8226
# RXF 393 = test system: RXF 393
# SF-268 = test system: SF-268
# SF-295 = test system: SF-295
# SF-539 = test system: SF-539
# SK-MEL-28 = test system: SK-MEL-28
# SK-MEL-2 = test system: SK-MEL-2
# SK-MEL-5 = test system: SK-MEL-5
# SK-OV-3 = test system: SK-OV-3
# SN12C = test system: SN12C
# SNB-19 = test system: SNB-19
# SR = test system: SR
# SW-620 = test system: SW-620
# T47D = test system: T47D
# TK-10 = test system: TK-10
# U-251 = test system: U-251
# UACC-257 = test system: UACC-257
# UACC-62 = test system: UACC-62
# UO-31 = test system: UO-31
# HL-60 = test system: HL-60
# HOP-92 = test system: HOP-92
smiles,measurement,setting,value
COC1=C(OC)C(=O)C(Cc2c(C)nc3sccn23)=C(C)C1=O,GI50,786-0,19.1 µM (inactive)
same,GI50,A498,14.9 µM (inactive)
same,GI50,A549,11 µM (inactive)
same,GI50,ACHN,14.9 µM (inactive)
same,GI50,BT-549,16.1 µM (inactive)
same,GI50,CAKI-1,17.9 µM (inactive)
same,GI50,CCRF-CEM,3.56 µM (inactive)
same,GI50,COLO 205,12.6 µM (inactive)
same,GI50,DU-145,18.1 µM (inactive)
same,GI50,EKVX,14.1 µM (inactive)
same,GI50,HCC 2998,20.9 µM (inactive)
same,GI50,HCT-116,19.3 µM (inactive)
same,GI50,HCT-15,16.5 µM
same,GI50,HOP-62,17.5 µM (inactive)
same,GI50,HT-29,16.4 µM (inactive)
same,GI50,Hs-578T,19.3 µM (inactive)
same,GI50,IGROV-1,22.4 µM (inactive)
same,GI50,K562,18.7 µM (inactive)
same,GI50,KM12,15.2 µM (inactive)
same,GI50,LOX IMVI,11.7 µM (inactive)
same,GI50,M14,17 µM (inactive)
same,GI50,MCF7,20.1 µM (inactive)
same,GI50,MDA-MB-231,13.1 µM (inactive)
same,GI50,MDA-MB-435,13.6 µM (inactive)
same,GI50,MDA-N,12.7 µM (inactive)
same,GI50,MOLT-4,2.01 µM (inactive)
same,GI50,Malme-3M,10.9 µM (inactive)
same,GI50,NCI-H23,10.9 µM (inactive)
same,GI50,NCI-H460,20 µM (inactive)
same,GI50,NCI-H522,6.64 µM (inactive)
same,GI50,NCI/ADR-RES,14.4 µM (inactive)
same,GI50,OVCAR-3,15 µM (inactive)
same,GI50,OVCAR-4,2.92 µM (inactive)
same,GI50,OVCAR-5,16.8 µM (inactive)
same,GI50,OVCAR-8,14.9 µM (inactive)
same,GI50,PC-3,16.3 µM (inactive)
same,GI50,RPMI-8226,2.48 µM (inactive)
same,GI50,RXF 393,22.8 µM (inactive)
same,GI50,SF-268,18.8 µM (inactive)
same,GI50,SF-295,15 µM (inactive)
same,GI50,SF-539,16.5 µM (inactive)
same,GI50,SK-MEL-28,11 µM (inactive)
same,GI50,SK-MEL-2,16.6 µM (inactive)
same,GI50,SK-MEL-5,4.68 µM (inactive)
same,GI50,SK-OV-3,13.7 µM (inactive)
same,GI50,SN12C,15.8 µM (inactive)
same,GI50,SNB-19,16 µM (inactive)
same,GI50,SR,14.5 µM (inactive)
same,GI50,SW-620,14.8 µM (inactive)
same,GI50,T47D,18.2 µM (inactive)
same,GI50,TK-10,16.4 µM (inactive)
same,GI50,U-251,15.6 µM (inactive)
same,GI50,UACC-257,5.65 µM (inactive)
same,GI50,UACC-62,10.6 µM (inactive)
same,GI50,UO-31,13.6 µM (inactive)
COc1ccc(/C=C/C(=O)C(C)(C)Br)cc1,GI50,786-0,3.48 µM (inactive)
same,GI50,A498,20 µM (inactive)
same,GI50,A549,20.3 µM (inactive)
same,GI50,ACHN,8.55 µM (inactive)
same,GI50,BT-549,1.92 µM (inactive)
same,GI50,CAKI-1,17.4 µM (inactive)
same,GI50,CCRF-CEM,1.59 µM (inactive)
same,GI50,COLO 205,15 µM (inactive)
same,GI50,DU-145,14.3 µM (inactive)
same,GI50,EKVX,15.1 µM (inactive)
same,GI50,HCT-116,2.19 µM (inactive)
same,GI50,HCT-15,2.62 µM
same,GI50,HL-60,19.5 µM (inactive)
same,GI50,HOP-62,6.3 µM (inactive)
same,GI50,HOP-92,11.8 µM (inactive)
same,GI50,Hs-578T,16.3 µM (inactive)
same,GI50,IGROV-1,1.71 µM (inactive)
same,GI50,K562,4.61 µM (inactive)
same,GI50,KM12,16.1 µM (inactive)
same,GI50,LOX IMVI,7.33 µM (inactive)
same,GI50,M14,1.56 µM (inactive)
same,GI50,MCF7,5.11 µM (inactive)
same,GI50,MDA-MB-231,20 µM (inactive)
same,GI50,MDA-MB-435,11.5 µM (inactive)
same,GI50,MDA-N,7.57 µM (inactive)
same,GI50,MOLT-4,3.86 µM (inactive)
same,GI50,Malme-3M,13.5 µM (inactive)
same,GI50,NCI-H23,2.25 µM (inactive)
same,GI50,NCI-H460,18.9 µM (inactive)
same,GI50,NCI-H522,1.22 µM (inactive)
same,GI50,NCI/ADR-RES,24 µM (inactive)
same,GI50,OVCAR-3,17.5 µM (inactive)
same,GI50,OVCAR-5,12 µM (inactive)
same,GI50,OVCAR-8,3.04 µM (inactive)
same,GI50,PC-3,11.7 µM (inactive)
same,GI50,RPMI-8226,3.42 µM (inactive)
same,GI50,RXF 393,1.4 µM (inactive)
same,GI50,SF-268,15.2 µM (inactive)
same,GI50,SF-295,17.9 µM (inactive)
same,GI50,SF-539,17.1 µM (inactive)
same,GI50,SK-MEL-2,12.2 µM (inactive)
same,GI50,SK-MEL-5,14.7 µM (inactive)
same,GI50,SK-OV-3,22.2 µM (inactive)
same,GI50,SN12C,4.95 µM (inactive)
same,GI50,SNB-19,25.8 µM (inactive)
same,GI50,SR,3.3 µM (inactive)
same,GI50,SW-620,2.43 µM (inactive)
same,GI50,T47D,20.8 µM (inactive)
same,GI50,TK-10,14.6 µM (inactive)
same,GI50,U-251,13.7 µM (inactive)
same,GI50,UACC-257,15.5 µM (inactive)
same,GI50,UACC-62,12.7 µM (inactive)
same,GI50,UO-31,4.27 µM (inactive)
